Consider 17 molecules from patent US4022842A, “Bibenzyl compounds” (Rikagaku Kenkyusho, priority 1972, dated 1977).

≈ marks a conversion by molar mass, not a printed value. Like-named read-outs stand apart in the source and are kept apart here.

One series has as its system lettuce seeds. In words: Inhibition of germination of lettuce seeds, 50% inhibition (Example 5, Table 2). Type of series: in vivo, Lactuca sativa L. To be noted: 1% dimethylformamide; for IC50: Lactuca sativa, 48 h. How it is done:
Every compound shown in Table 1 was respectively dissolved at various concentrations in distilled water containing 1% of dimethylformamide, and 3 ml each of the resulting solutions was poured into a culture dish of 6 cm diameter in which 2 filter papers were spread. About 100 seeds (non-dormant ware head seeds) of lettuce (Lactuca sativa L.) were shown in each dish, and they were allowed to stand at 23° C. in the dark for 2 days. Germination percentages were determined and plotted against the concentrations of the compound tested. From the graphs obtained the concentration to give 50% inhibition was determined. The definition of inhibition rate is given in the following formula: [formula] Usually the germination percentage of the untreated control lot was about 95%.

The test system of the next series is oats coleoptile. Briefly: Growth inhibition in oats coleoptile sections (Example 4, Table 1). On the set-up: species or system Avena sativa L. To be noted: for IC50: Avena sativa. How it is done: A compound illustrated in Table 1 was dissolved in dimethylformamide and the solution was diluted to desired concentrations with water containing 2% of sucrose. In control test dimethylformamide was applied in the same amount as that of treated groups. This solvent gives no phytotoxicity to plants to be tested if the content in water is 1% or less. The prepared liquors were poured into culture dishes of 3 cm diameter, the amount of the medium poured into one dish being 2 ml. Sections of 5 mm in length cut from a coleoptiles of oats (Avena sativa L.) which have been grown in the dark were floated on the test media in the culture dishes and cultured at 25° C. for 20 hours in the dark to determine the growth-inhibition degrees.
In the control group, the coleoptile elongated by about 5 mm during the experiment.

In a further series the test system is seeds of a lettuce. In words: Germination ratio of lettuce seeds (Example 8, Table 5). The series is classed as in vivo, Lactuca sativa L. To be noted: for Germination Ratio: 23° C., 2 days, untreated control 90. How it is done: 4-Hydroxy-2,6,7-trimethoxyphenanthrene and 3,3'-dihydroxy-5-methoxybibenzylwere respectively dissolved in water containing 0.05% of Tween 20 and 1% of dimethylformamide, and each of the resulting solution was poured into a culture dish, 6 cm in diameter, in which 2 layers of filter paper were spread to form a germination bed. 100 seeds of a lettuce (Lactuca sativa L.) were sown on the germination bed and cultivation was conducted for 2 days at 23° C. […] [formula]

Series [1] relates to Bulbils of yam. In words: Germination (sprouting) of yam bulbils awakened from dormancy (Example 6, Table 3). To be noted: 300 μg/ml; 23° C., light of 1800 luxes, 2 weeks; untreated control 80. Type of series: in vivo, Dioscorea batatas Decne. How it is done: Bulbils (fleshy buds for breeding formed on stems) of yam (Dioscorea batatas Decne.) were stored at a low temperature of 5° C. for 3 months and awakened from hibernation. These fleshy buds were treated with the agricultural chemical of this invention in the following manner to lead them to hibernation again.
Every active ingredient compound of this invention shown in the following Table 3 was dissolved emulsified in distilled water containing 1% of dimethylformamide and 0.05% of Tween 20. 25 ml of the resulting liquor was poured into a culture dish of 9 cm diameter in which absorbent cotton was spread, and 30 of bulbis which had been subjected to the above low temperature treatment and awakened from dormancy were sown on the dish and they were allowed to sprout at 23° C. under light of 1800 luxes for 2 weeks.

Series [2] has as its system bulbils of yam. In words: Sprouting of yam bulbils in dark or light (Example 7, Table 4). The series is classed as in vivo, Discorea batatas Decne. The note with it: 23° C., 20 days. How it is done: 4-Hydroxy-2,6,7-trimethoxyphenanthrene and 3,3'-dihydroxy-5-methoxybibenzylwere respectively dissolved at various concentrations in water containing 0.05% of Tween 20, and 30 ml each of the resulting solutions were poured into culture dishes of 9 cm in diameter containing 1 g of absorbent cotton.
Thirty bulbils of yam (Discorea batatas Decne.) which had been awakened from dormancy were planted in each of the so arranged culture dishes, and the germination test was carried out at 23° C. either in the dark or in the light. […]

The next series has as its system Seedings of lettuce. Briefly: Growth inhibition of lettuce seedling stems (hypocotyls) (Example 10, Table 7). Type of series: in vivo, Lactuca sativa L. To be noted: Lactuca sativa, 72 h, read-out: Growth Inhibition Ratio. How it is done:
4-Hydroxy-2,6,7-trimethoxyphenanthrene or 3,3'-dihydroxy-5-methoxybibenzyl was dissolved in acetone, and the resulting solution was placed in culture dishes in which 2 layers of filter paper were spread so as to give required amounts of the test compound. After the acetone was removed by evaporation, Hoagland's nutrient solution containing 0.05% of Tween 20 was poured into the culture dishes. Seedings of lettuce (Lactuca sativa L.), which had been germinated in a different place, were transplanted to the culture dishes and cultivation was carried out in a light place at 23° C. for 3 days. Then, the lengths of the stems (hypocotyls) were measured to determined the growth inhibition ratio.

In the next series the test system is oats coleoptiles. In words: Growth inhibition of oats coleoptile pieces with indoleacetic acid (Example 9, Table 6). On the set-up: species or system Avena sativa L. The note with it: Avena sativa, 18 h, read-out: Growth Inhibition ratio. How it is done: Oats (Avena sativa L.) were allowed to germinate under a weak red light at 25° C. and 3 days after germination sections of […] in length were cut from coleoptiles about 25 mm in length. 4-Hydroxy-2,6,7-trimethoxyphenanthrene or 3,3-dihydroxy-5-methoxybibenzyl was dissolved in a culture medium comprising 0.1 mg/l of indoleacetic acid, 0.05% of Tween 20 and 2% of sucrose, the balance being water. Ten of the above cut-out coleoptile pieces were flated on the resulting culture medium and cultivation was conducted at 25° C. for 18 hours to examine the growth state and the results shown in Table 6 were obtained.

Another series can be described thus: Solubility. The series is classed as physicochemical.
Setting [3] is: 23° C., dark, 2 days, read-out: Inhibition of Germination of Lettuce Seeds, Concentration Giving 50% Inhibition.
Where [4] appears, read: 5 mm sections, 25° C., 20 hours, dark, read-out: Growth Inhibition in oats coleoptile (concentration giving 50% inhibition).
[5] abbreviates: read-out: Inhibition of Germination of Lettuce Seeds, Concentration Giving 50% Inhibition, 23° C., dark, 2 days.
[6] abbreviates: 20 h, read-out: Growth Inhibition in oats coleoptile (concentration giving 50% inhibition), 5 mm sections, 25° C., 20 hours, dark.

In the case of `COc1cc(O)cc(CCc2ccccc2)c1` [Compound 1, 3-hydroxy-5-methoxybibenzyl], the results for the IC50 in the series on lettuce seeds (setting [3]) and in the series on oats coleoptile (setting [4]) were 60 µg/mL (≈ 263 µM) and 80 µg/mL (≈ 350 µM), respectively.
Turning to `COc1ccc(CCc2cc(O)cc(O)c2)cc1O` [Compound 7, 3,3',5'-trihydroxy-4-methoxybibenzyl], the IC50 with lettuce seeds (setting [3]) and in the series with oats coleoptile (setting [4]) was 75 µg/mL (≈ 288 µM) in each case.
As to `COc1cc(O)c2c(ccc3cc(OC)c(OC)cc32)c1` [Compound 10, 4-hydroxy-2,6,7-trimethoxyphenanthrene], the IC50 with lettuce seeds (setting [5]) came out at 60 µg/mL (≈ 211 µM); in the series with oats coleoptile (setting [6]) it was 90 µg/mL (≈ 317 µM). In addition, the “Germination Ratio” value with seeds of a lettuce (30 mg/l) amounted to 78%; in the series on seeds of a lettuce (100 mg/l) it was 43%; with seeds of a lettuce (300 mg/l), 10%; with Bulbils of yam [1], 45%. In addition, the “Blight of germination-inhibited seeds” value with seeds of a lettuce (after treatment) is “not blighted”. Moreover, the “Germination after washing and transplanting” value in the series with seeds of a lettuce (washed with water, transplanted on culture dish free of compound) is given as “complete germination”. The “Sprouting Ratio” value came to 46% in the series on bulbils of yam [2] (100 mg/l, dark place, untreated control 56); 14% in the series with bulbils of yam [2] (100 mg/l, light place, untreated control 44); 30% in the series with bulbils of yam [2] (300 mg/l, dark place, untreated control 56); 8% with bulbils of yam [2] (300 mg/l, light place, untreated control 44); 23% with bulbils of yam [2] (1000 mg/l, dark place, untreated control 56). Moreover, the inhibition at 30 µg/mL with Seedings of lettuce was found to be 13%; in the series with oats coleoptiles, 16%. Moreover, the inhibition at 100 µg/mL with Seedings of lettuce was determined as 45%; in the series with oats coleoptiles, 44%. Further, the inhibition at 300 µg/mL worked out at 72% in the series with Seedings of lettuce and 79% with oats coleoptiles.
For `COc1cc2ccc3cc(O)c(O)cc3c2c(O)c1OC` [Compound 12, 4,6,7-trihydroxy-2,3-dimethoxyphenanthrene], the IC50 in the series on lettuce seeds (setting [5]) is 140 µg/mL (≈ 489 µM); with oats coleoptile (setting [6]), 120 µg/mL (≈ 419 µM).
Take `COc1cc(O)c2c(c1)CCc1cc(O)c(OC)cc1-2` [Compound 18, 4,7-dihydroxy-2,6-dimethoxy-9,10-dihydrophenanthrene]: the IC50 in the series with lettuce seeds (setting [3]) was 160 µg/mL (≈ 588 µM); in the series on oats coleoptile (setting [4]) it was 180 µg/mL (≈ 661 µM).
Turning to `COc1cc2c(cc1O)CCc1cc(OC)c(OC)c(O)c1-2` [Compound 17, 4,7-dihydroxy-2,3,6-trimethoxy-9,10-dihydrophenanthrene], the IC50 stood at 120 µg/mL (≈ 397 µM) with lettuce seeds (setting [3]) and 200 µg/mL (≈ 662 µM) with oats coleoptile (setting [4]). Also, the “Germination Ratio” value in the series on Bulbils of yam [1] is 40%.
With `COc1cc2ccc3cc(O)c(OC)c(OC)c3c2cc1O` [Compound 11, 2,6-dihydroxy-3,4,7-trimethoxyphenanthrene], the IC50 with lettuce seeds (setting [3]) and in the series with oats coleoptile (setting [4]) was 100 µg/mL (≈ 333 µM) in each case. The “Germination Ratio” value in the series on Bulbils of yam [1] is 50%.
On to `COc1cc(CCc2ccc(O)cc2)cc(O)c1OC` [Compound 3, 3,4'-dihydroxy-4,5-dimethoxybibenzyl], for which the IC50 was determined as 120 µg/mL (≈ 437 µM) in the series with lettuce seeds (setting [3]) and 150 µg/mL (≈ 547 µM) in the series on oats coleoptile (setting [4]). Besides, the “Germination Ratio” value in the series on Bulbils of yam [1] amounted to 42%.
On to `CC(=O)c1cc(CCc2ccccc2)c(O)cc1O` [Compound 4, 4,6-dihydroxy-3-acetyldibenzyl], for which the IC50 with lettuce seeds (setting [3]) and in the series with oats coleoptile (setting [4]) was 90 µg/mL (≈ 351 µM) throughout. Further, the “Germination Ratio” value with Bulbils of yam [1] is on record as 63%.
Turning to `CC(=O)c1ccc2c(c1)CCc1cc(O)c(C(C)=O)cc1-2` [Compound 15, 7-hydroxy-2,6-diacetyl-9,10-dihydrophenanthrene], the values for the IC50 with lettuce seeds (setting [3]) and in the series with oats coleoptile (setting [4]) were 80 µg/mL (≈ 285 µM) and 130 µg/mL (≈ 464 µM), respectively.
On to `Oc1c(Cl)cc(Cl)cc1CCc1cc(Cl)cc(Cl)c1O` [Compound 6, 3,5,3',5'-tetrachloro-2,2'-dihydroxybibenzyl], for which the values for the IC50 with lettuce seeds (setting [3]) and with oats coleoptile (setting [4]) were 10 µg/mL (≈ 28.4 µM) and 30 µg/mL (≈ 85.2 µM), respectively. For the same molecule, the “Germination Ratio” value with Bulbils of yam [1] is on record as 15%.
With `Oc1cc(O)c2c(c1)CCc1cc(O)c(O)cc1-2` [Compound 16, 2,3,5,7-tetrahydroxy-9,10-dihydrophenanthrene], the values for the IC50 in the series with lettuce seeds (setting [3]) and in the series on oats coleoptile (setting [4]) were 160 µg/mL (≈ 655 µM) and 150 µg/mL (≈ 614 µM), respectively.
For `COc1cc(OC)c2c(ccc3ccc(O)cc32)c1` [Compound 13, 2,4-dimethoxy-6-hydroxyphenanthrene], in the series with lettuce seeds (23° C., dark, 2 days), the “Inhibition of Germination of Lettuce Seeds, Concentration Giving 50% Inhibition” value is 80 µg/mL. In addition, in the series with Bulbils of yam [1], the “Germination Ratio” value was determined as 60%. Moreover, the “Growth Inhibition in oats coleoptile (concentration giving 50% inhibition)” value in the series on oats coleoptile (5 mm sections, 25° C., 20 hours, dark) amounted to 90 µg/mL.
In the case of `COc1cc(OC)c2c(ccc3ccc(O)cc32)c1` [Compound 9, 2,4-dimethoxy-6-hydroxyphenanthrene], the IC50 was 100 µg/mL (≈ 393 µM) in the series with lettuce seeds (setting [5]) and 130 µg/mL (≈ 511 µM) in the series with oats coleoptile (setting [6]).
Take `CC(=O)c1cc2ccccc2c2cc(Cl)ccc12` [Compound 14, 6-chloro-9-acetylphenanthrene]: the IC50 in the series on lettuce seeds (setting [5]) turned out to be 30 µg/mL (≈ 118 µM); in the series with oats coleoptile (setting [6]), 70 µg/mL (≈ 275 µM). In the series on Bulbils of yam [1], the “Germination Ratio” value turned out to be 70%.
With `COc1cc(CCc2ccccc2O)c(O)c(OC)c1` [Compound 2, 2,2'-dihydroxy-3,5-dimethoxybibenzyl], the IC50 with lettuce seeds (setting [3]) and with oats coleoptile (setting [4]) was 100 µg/mL (≈ 365 µM) each time. Besides, the “Solubility in ordinary solvents” value in the series “Solubility” (ethanol, acetone, ethyl acetate and ether) is on record as “Soluble”. The Solubility in hexane entry in the series “Solubility” (hexane) is recorded as “insoluble”. Further, the Solubility in water result in “Solubility” (water) was “insoluble”.
In the case of `Oc1ccc(CCc2ccccc2)c(O)c1` [Compound 5, 2,4-dihydroxybibenzyl], the IC50 with lettuce seeds (setting [3]) was found to be 90 µg/mL (≈ 420 µM); with oats coleoptile (setting [4]), 110 µg/mL (≈ 513 µM).
